Assay results reported in article PMC8602566 (Frontiers in Oncology, 2021).

Tests used:
[1] = system: Human lung cancer cell line A549; experiment: MTT cell viability assay, A549; assay type: cell-based; conditions: A549, 72 h, read-out: IC50 antiproliferative activity A549
Procedure: (§1) Cell viability was measured using the 3-(4,5-dimethylthiazol-2-yl)-2,5-diphenyltetrazolium bromide (MTT) assay and was expressed as a ratio to the absorbance value at 570 nm of the control cells.

[2] = system: Human liver cancer cell line HepG2; experiment: MTT cell viability assay, HepG2; assay type: cell-based; conditions: HepG2, 72 h, read-out: IC50 antiproliferative activity HepG2
Procedure: as §1

[3] = system: Human leukemia cell line K562; experiment: MTT cell viability assay, K562; assay type: cell-based; conditions: K562, 72 h, read-out: IC50 antiproliferative activity K562
Procedure: as §1

[4] = system: Human colon carcinoma cell line SW-620; experiment: MTT cell viability assay, SW-620; assay type: cell-based; conditions: SW-620, 72 h, read-out: IC50 antiproliferative activity SW-620
Procedure: as §1

[5] = system: Human glioblastoma cell line U251; experiment: MTT cell viability assay, U251; assay type: cell-based; conditions: U-251, 72 h, read-out: IC50 antiproliferative activity U251
Procedure: as §1

[6] = system: Human glioblastoma cell line U87; experiment: MTT cell viability assay, U87; assay type: cell-based; conditions: 72 h, read-out: IC50 antiproliferative activity U87
Procedure: Human GBM U87 cell line was purchased from the American Type Culture Collection (ATCC). Cells were cultured in Dulbecco’s modified Eagle’s medium (DMEM) supplemented with 10% fetal bovine serum (FBS) and maintained in a 37°C, 5% CO2 incubator. After cells were routinely passaged at 2- to 3-day intervals, experiments were carried out when the cells entered exponential growth phase.
as §1

[7] = system: Human glioma cell line SHG44; experiment: MTT cell viability assay, SHG44; assay type: cell-based; conditions: SHG-44, 72 h, read-out: IC50 antiproliferative activity SHG44
Procedure: as §1

[8] = system: Human glioma cell line LN229; experiment: MTT cell viability assay, LN229; assay type: cell-based; conditions: LN-229, 72 h, read-out: IC50 antiproliferative activity LN229
Procedure: as §1

[9] = system: Human umbilical vein endothelial cells HUVEC; experiment: MTT cell viability assay, HUVEC; assay type: cell-based; conditions: Homo sapiens, HUVEC, 72 h, read-out: IC50 HUVEC
Procedure: as §1

[10] = system: all eight cell lines; experiment: Antiproliferative activity, panel of eight cancer cell lines (summary); assay type: cell-based; conditions: Homo sapiens, read-out: IC50 values against all eight cell lines
Procedure: Cells (5 × 10^4) were seeded into 96-well plates and exposed to vehicle (PBS) or different concentrations of compounds for 72 h. Cell viability was measured using the 3-(4,5-dimethylthiazol-2-yl)-2,5-diphenyltetrazolium bromide (MTT) assay and was expressed as a ratio to the absorbance value at 570 nm of the control cells.
As DMC-HA was identified as a potent novel inhibitor for HDACs, its antiproliferative activities on a panel of cancer cell lines and normal cells were evaluated, including four glioma cell lines, and the results are shown in Table 2. Vorinostat and curcumin were also tested as positive controls. […].

[11] = Hepatic microsome stability assay, human; assay type: in vitro ADME; conditions: human liver microsomes, NADPH, 37°C, pH 7.4
Procedure: (§2) Metabolic stability was assessed in the presence of human, mouse, and rat liver microsomes (XenoTech, Lenexa, KS, USA). All liquid dispenses and transfer steps were performed with the Freedom Evo automated liquid handler (Tecan US). Compound stock solutions were initially prepared in 100% DMSO and subsequently diluted in acetonitrile for the assay. The pH of the reactions was kept at 7.4 with potassium phosphate buffer. The reaction wells were prepared by adding microsomes to a well and allowed to warm to 37°C. Then, compound was added to each well. The reactions were […] by adding cofactor reduced nicotinamide adenine dinucleotide phosphate (NADPH) to the reaction well containing microsomes and compounds. Negative controls received buffer only. Immediately after reactions started, 0-min aliquots were promptly collected and mixed in a separate well with ice cold acetonitrile to quench the reactions. The remainder of the reaction volume was incubated at 37°C with shaking. An additional aliquot was collected at 60 min after the start of the reaction and promptly quenched with ice cold acetonitrile. Samples were vortexed and centrifuged at 3,500 rpm for 10 min. The amount of compound in the supernatant was determined by liquid chromatography–tandem mass spectrometry (LC/MS/MS) (Thermo Fischer Scientific, San Jose, CA, USA), and the percent of parent compound remaining after 60 min was calculated. Results are the mean of each reaction triplicate, normalized to the internal standard, and expressed as the percent of compound remaining after the incubation time.
(§3) Structures that are active in vitro may not be potent in vivo due to their susceptibility to metabolism in the body. We then thoroughly examined the liver microsomal metabolic stability of DMC-HA across three different species (Table 3). […] In addition, the half-life of DMC-HA in human microsome is generally two to three times longer than those in mice and rats. Collectively, the in vitro liver microsomal stability of DMC-HA is favorable, guaranteeing its further in vivo studies.

[12] = Hepatic microsome stability assay, mice; assay type: in vitro ADME; conditions: mouse liver microsomes, NADPH, 37°C, pH 7.4
Procedure: as §2, §3

[13] = Hepatic microsome stability assay, rat; assay type: in vitro ADME; conditions: rat liver microsomes, NADPH, 37°C, pH 7.4
Procedure: as §2, §3

[14] = system: acetylated histone H3 in U87 cells; experiment: Western blot analysis for H3-histone acetylation; assay type: cell-based, Human; conditions: various concentrations, 24 h
Procedure: U87 cells (5 × 10^5 cells/ml) in six-well plates were incubated with DMC-HA and lysed in radioimmunoprecipitation assay (RIPA) buffer containing protease and phosphatase inhibitors. Protein contents in the lysates were determined by Bradford’s assay, and 50 μg was separated by SDS polyacrylamide gel electrophoresis (SDS-PAGE) electrophoresis. Proteins were transferred to membranes and probed with human anti-acetylated H3 and anti-β actin antibodies as a loading control. Membranes were then labeled with the appropriate horseradish peroxidase (HRP)-conjugated immunoglobulin G (IgG), and protein bands were visualized using enhanced chemiluminescence. (Bio-Rad, Hercules, CA, USA).
Next, DMC-HA-induced acetylation of histone H3 in living cells was analyzed using Western blot method.

[15] = system: U87 tumor xenograft; conditions: nude mice, 20 mg/kg once daily
From the text: Six-week-old BALB/c nude mice were purchased from Shanghai Experimental Animal Center of Chinese Academy of Science (Shanghai, China). All animal protocols were implemented according to the guidelines of the Association for Assessment and Accreditation of Laboratory Animal Care. U87 cells (3 × 10^6) were subcutaneously implanted into the right flank of mice. After 6 days of tumor growth, tumors grew to approximately 100 mm^3, and mice were randomly divided into three groups with nine animals in each group. […] The control group was intraperitoneally injected an equal volume of DMSO. Body weights and tumor volumes were measured every 2 days. After treatment, all of the mice were sacrificed, and the tumors were harvested, weighted, and photographed. The tumor volume was calculated according the formula: tumor volume = (length × width^2)/2.
U87 cells were subcutaneously inoculated into the right flank of mice.

[16] = target: SIRT1 (Homo sapiens, UniProt Q96EB6); experiment: HDACs inhibition assay, SIRT1
SIRT1, sequence (Q96EB6 whole entry): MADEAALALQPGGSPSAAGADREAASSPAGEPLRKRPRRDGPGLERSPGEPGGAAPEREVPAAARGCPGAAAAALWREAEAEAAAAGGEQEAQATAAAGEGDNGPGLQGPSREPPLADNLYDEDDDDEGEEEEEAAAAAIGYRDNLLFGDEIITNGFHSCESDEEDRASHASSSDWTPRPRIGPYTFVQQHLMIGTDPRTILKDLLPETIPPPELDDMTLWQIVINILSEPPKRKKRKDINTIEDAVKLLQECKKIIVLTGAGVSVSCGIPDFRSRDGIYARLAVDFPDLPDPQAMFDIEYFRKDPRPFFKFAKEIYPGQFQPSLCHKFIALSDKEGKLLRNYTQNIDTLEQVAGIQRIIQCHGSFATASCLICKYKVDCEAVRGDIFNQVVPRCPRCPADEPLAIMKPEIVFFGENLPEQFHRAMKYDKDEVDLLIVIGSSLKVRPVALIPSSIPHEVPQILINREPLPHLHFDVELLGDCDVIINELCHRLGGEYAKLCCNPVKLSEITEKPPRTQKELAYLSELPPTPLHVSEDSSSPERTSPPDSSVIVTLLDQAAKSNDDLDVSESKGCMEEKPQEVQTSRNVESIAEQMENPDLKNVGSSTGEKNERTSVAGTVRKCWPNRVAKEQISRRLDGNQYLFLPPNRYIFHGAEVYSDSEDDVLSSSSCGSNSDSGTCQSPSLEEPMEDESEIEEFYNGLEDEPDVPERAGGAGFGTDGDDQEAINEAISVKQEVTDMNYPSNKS
Procedure: The inhibition assays for HDACs were carried out according to standard protocols. […] The reaction was stopped by the addition of 45 μl of 100 mM HEPES (pH 7.5) and 0.08% sodium dodecyl sulfate (SDS). The substrate and the product were then separated electrophoretically using a LabChip 3000 system (Caliper Life Sciences, Hopkinton, MA) with blue laser excitation and green fluorescence detection.

Compound	IC50 [1] [µM]	IC50 [2] [µM]	IC50 [3] [µM]	IC50 [4] [µM]	IC50 [5] [µM]	IC50 [6] [µM]	IC50 [7] [µM]	IC50 [8] [µM]	IC50 [9] [µM]	IC50 [10] [µM]	microsomal CLint [11] [µL/min/mg]	half-life ([11]; read-out: Human Liver Microsomal Stability T1/2) [min]	microsomal CLint [12] [µL/min/mg]	half-life ([12]; read-out: Mice Liver Microsomal Stability T1/2) [min]	microsomal CLint [13] [µL/min/mg]	half-life ([13]; read-out: Rat Liver Microsomal Stability T1/2) [min]	acetylation of histone H3, dose dependence [14]	effects on the body weight [15]	toxicity during the administration period [15]	IC50 [16] [µM]
COc1cc(/C=C/C(=O)CC(=O)/C=C/c2ccc(O)c(OC)c2)ccc1O [Curcumin, reference compound]	32.9 ± 3.99	18.3 ± 3.21	16.4 ± 1.23	49.2 ± 7.42	27.6 ± 3.11	31.9 ± 2.9	24.6 ± 4.52	21.9 ± 4.65	58.5 ± 7.92	16.4 to 49.2	82	17.2	92.9	15.3	138	10.4	–	–	–	–
O=C(CCCCCCC(=O)Nc1ccccc1)NO [Vorinostat, suberoylanilide hydroxamic acid, reference compound]	–	–	–	–	–	–	–	–	–	–	–	–	–	–	–	–	dose dependently increased the acetylation of histone H3	no effects on the body weight	no observable toxicity	> 10
